Key:
[1] = Tolerability in mouse xenograft experiments; assay type: in vivo
Procedure: Human-derived colorectal cancer cell lines, LS513, HCT-116, and HT29, were subcutaneously transplanted into 6-week-old female BALB/c nude mice to establish tumor models. Additionally, the mouse cancer cell line MC38 was subcutaneously transplanted into 6-week-old female and C57BL/6 mice to induce tumor formation. […]. The treatments were administered orally once daily for 2 weeks based on the growth rate observed in the vehicle group. Tumor volume was evaluated three times a week using the formula Tumor volume (TV) = (tumor short diameter ^2 × tumor long diameter)/2. The body weight of the mice was measured three times a week to assess potential toxicity in vivo. […]

TIE2 = TIE2 (Homo sapiens, UniProt Q02763); test: Eurofins kinase assay
Sequence of TIE2 (Q02763 23-1124): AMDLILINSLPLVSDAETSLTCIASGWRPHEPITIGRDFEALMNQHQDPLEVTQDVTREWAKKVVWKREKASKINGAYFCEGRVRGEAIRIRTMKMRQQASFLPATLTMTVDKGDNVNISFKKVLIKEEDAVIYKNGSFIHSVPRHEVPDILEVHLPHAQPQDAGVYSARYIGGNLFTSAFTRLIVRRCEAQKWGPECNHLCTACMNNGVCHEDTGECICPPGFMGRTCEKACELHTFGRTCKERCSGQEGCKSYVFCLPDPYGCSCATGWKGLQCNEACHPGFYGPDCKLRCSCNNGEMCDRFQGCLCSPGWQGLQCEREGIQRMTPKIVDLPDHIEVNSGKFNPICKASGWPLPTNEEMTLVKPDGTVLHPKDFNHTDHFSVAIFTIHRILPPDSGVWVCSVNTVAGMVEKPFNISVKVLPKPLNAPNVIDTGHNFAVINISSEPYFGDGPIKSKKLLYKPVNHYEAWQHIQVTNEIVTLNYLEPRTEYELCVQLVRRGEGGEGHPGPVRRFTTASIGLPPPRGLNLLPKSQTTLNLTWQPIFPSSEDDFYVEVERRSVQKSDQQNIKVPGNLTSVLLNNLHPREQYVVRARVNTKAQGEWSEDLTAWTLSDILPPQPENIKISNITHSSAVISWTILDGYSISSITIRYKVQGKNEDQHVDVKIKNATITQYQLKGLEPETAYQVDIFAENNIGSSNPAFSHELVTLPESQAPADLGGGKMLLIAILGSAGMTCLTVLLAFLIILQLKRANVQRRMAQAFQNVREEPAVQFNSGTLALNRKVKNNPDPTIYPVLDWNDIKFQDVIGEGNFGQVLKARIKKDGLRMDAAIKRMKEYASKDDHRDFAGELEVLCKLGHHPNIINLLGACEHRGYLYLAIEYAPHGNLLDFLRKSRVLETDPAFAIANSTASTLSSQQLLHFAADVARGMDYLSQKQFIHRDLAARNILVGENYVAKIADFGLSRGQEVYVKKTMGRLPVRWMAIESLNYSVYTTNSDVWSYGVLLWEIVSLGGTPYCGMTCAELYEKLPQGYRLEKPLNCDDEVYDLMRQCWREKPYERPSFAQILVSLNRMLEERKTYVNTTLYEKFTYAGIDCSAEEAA

BRAF (V600E) = BRAF (V600E) (Homo sapiens, UniProt P15056, V600E); test: Eurofins kinase assay
PI3Kinase(p110a/p85a)(h) = PI3Kinase(p110a/p85a)(h) (Homo sapiens, UniProt P42336); test: Eurofins kinase assay
[2] = target: PI3Kinase(p110a(E545K)/p85a)(m) (Mus musculus, UniProt P42337, E545K); test: Eurofins kinase assay
BTK(h) = BTK(h) (Homo sapiens, UniProt Q06187); test: Eurofins kinase assay
Yes(h) = Yes(h) (Homo sapiens, UniProt P07947); test: Eurofins kinase assay
PKCι(h) = PKCι(h) (Homo sapiens, UniProt P41743); test: Eurofins kinase assay
PKCβII(h) = PKCβII(h) (Homo sapiens, UniProt P05771); test: Eurofins kinase assay
MST2(h) = MST2(h) (Homo sapiens, UniProt Q13188); test: Eurofins kinase assay
ATR/ATRIP(h) = ATR/ATRIP(h) (Homo sapiens, UniProt Q13535); test: Eurofins kinase assay
Rsk3(h) = Rsk3(h) (Homo sapiens, UniProt Q15349); test: Eurofins kinase assay
PKD2(h) = PKD2(h) (Homo sapiens, UniProt Q9BZL6); test: Eurofins kinase assay
CaMKIV(h) = CaMKIV(h) (Homo sapiens, UniProt Q16566); test: Eurofins kinase assay
PKCγ(h) = PKCγ(h) (Homo sapiens, UniProt P05129); test: Eurofins kinase assay
CHK2(h) = CHK2(h) (Homo sapiens, UniProt O96017); test: Eurofins kinase assay
CK1δ(h) = CK1δ(h) (Homo sapiens, UniProt P48730); test: Eurofins kinase assay
Rsk1(h) = Rsk1(h) (Homo sapiens, UniProt Q15418); test: Eurofins kinase assay
PRK2(h) = PRK2(h) (Homo sapiens, UniProt Q16513); test: Eurofins kinase assay
EGFR(h) = EGFR(h) (Homo sapiens, UniProt P00533); test: Eurofins kinase assay
NEK2(h) = NEK2(h) (Homo sapiens, UniProt P51955); test: Eurofins kinase assay
CaMKIIβ(h) = CaMKIIβ(h) (Homo sapiens, UniProt Q13554); test: Eurofins kinase assay
GSK3β(h) = GSK3β(h) (Homo sapiens, UniProt P49841); test: Eurofins kinase assay
EphB2(h) = EphB2(h) (Homo sapiens, UniProt P29323); test: Eurofins kinase assay
Ros(h) = Ros(h) (Homo sapiens, UniProt P08922); test: Eurofins kinase assay
Sequence of Ros(h) (P08922 28-2347): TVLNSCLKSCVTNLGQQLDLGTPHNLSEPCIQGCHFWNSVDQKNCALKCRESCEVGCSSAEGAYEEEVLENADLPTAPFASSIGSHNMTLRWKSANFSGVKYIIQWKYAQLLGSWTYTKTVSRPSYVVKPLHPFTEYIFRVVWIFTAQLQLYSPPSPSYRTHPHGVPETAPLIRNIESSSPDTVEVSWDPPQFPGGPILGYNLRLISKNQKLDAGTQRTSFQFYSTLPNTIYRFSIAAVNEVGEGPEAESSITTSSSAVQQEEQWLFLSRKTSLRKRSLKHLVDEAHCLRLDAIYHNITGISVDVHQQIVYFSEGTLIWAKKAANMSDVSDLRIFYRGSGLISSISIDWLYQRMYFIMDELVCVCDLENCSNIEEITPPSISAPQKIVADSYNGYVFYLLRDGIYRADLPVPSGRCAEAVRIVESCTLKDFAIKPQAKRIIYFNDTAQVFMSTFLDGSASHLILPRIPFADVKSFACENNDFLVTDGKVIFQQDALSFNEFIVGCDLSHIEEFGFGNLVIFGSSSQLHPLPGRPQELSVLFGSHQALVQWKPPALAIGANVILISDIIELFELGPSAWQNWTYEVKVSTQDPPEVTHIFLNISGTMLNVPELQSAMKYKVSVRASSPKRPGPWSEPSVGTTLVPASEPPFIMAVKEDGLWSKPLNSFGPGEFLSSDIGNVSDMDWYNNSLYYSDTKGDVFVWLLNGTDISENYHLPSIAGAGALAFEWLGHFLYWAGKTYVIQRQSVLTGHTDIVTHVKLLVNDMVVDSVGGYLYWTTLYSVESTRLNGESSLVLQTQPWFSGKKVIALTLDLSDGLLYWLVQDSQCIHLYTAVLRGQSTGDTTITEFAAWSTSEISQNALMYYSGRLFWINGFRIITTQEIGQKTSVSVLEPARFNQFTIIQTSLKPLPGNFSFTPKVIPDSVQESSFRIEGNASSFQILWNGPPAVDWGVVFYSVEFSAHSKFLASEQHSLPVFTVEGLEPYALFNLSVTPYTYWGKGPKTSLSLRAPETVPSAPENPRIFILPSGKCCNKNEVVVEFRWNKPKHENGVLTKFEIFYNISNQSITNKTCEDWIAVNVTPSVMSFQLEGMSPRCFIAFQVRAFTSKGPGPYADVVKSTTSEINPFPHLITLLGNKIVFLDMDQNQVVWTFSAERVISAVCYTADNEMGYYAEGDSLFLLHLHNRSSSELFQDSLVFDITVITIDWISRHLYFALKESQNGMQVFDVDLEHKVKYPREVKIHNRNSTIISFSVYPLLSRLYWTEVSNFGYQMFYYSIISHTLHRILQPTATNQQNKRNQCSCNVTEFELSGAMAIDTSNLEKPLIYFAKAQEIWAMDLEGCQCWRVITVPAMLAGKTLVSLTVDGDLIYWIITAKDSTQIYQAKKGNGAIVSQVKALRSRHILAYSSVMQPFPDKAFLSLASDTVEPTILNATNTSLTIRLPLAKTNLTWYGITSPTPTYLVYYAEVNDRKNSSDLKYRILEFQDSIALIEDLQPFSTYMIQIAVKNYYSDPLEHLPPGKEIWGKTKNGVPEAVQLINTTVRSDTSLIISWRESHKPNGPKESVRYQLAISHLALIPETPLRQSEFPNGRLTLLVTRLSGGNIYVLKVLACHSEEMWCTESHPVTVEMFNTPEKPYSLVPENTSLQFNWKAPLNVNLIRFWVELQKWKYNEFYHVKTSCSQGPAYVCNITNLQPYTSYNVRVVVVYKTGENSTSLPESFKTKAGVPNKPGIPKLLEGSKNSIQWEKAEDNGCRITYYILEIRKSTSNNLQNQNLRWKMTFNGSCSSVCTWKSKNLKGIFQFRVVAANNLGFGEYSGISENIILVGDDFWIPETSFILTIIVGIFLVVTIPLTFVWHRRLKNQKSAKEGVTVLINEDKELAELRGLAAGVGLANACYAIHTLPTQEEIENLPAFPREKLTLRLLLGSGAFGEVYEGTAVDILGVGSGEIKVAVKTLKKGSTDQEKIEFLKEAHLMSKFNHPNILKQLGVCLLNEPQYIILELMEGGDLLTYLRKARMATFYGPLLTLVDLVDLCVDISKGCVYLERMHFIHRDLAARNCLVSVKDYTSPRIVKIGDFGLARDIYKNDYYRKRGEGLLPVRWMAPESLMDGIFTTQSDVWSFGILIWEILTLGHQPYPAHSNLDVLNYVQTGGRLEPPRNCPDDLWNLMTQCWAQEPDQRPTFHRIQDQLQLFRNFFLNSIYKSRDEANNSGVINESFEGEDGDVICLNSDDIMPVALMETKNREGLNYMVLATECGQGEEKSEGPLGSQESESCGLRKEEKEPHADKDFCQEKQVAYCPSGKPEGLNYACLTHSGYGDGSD

CDK5/p35(h) = CDK5/p35(h) (Homo sapiens, UniProt Q00535); test: Eurofins kinase assay
Sequence of CDK5/p35(h) (Q00535 whole entry): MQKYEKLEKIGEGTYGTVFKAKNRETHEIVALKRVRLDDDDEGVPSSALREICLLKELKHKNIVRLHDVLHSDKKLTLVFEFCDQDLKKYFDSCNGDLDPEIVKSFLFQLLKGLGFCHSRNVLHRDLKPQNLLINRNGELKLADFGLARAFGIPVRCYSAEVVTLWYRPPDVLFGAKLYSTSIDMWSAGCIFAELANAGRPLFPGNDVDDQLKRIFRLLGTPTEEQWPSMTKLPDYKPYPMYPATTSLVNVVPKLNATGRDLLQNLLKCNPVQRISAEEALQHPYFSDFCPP
Sequence of CDK5/p35(h) (Q15078 whole entry partner): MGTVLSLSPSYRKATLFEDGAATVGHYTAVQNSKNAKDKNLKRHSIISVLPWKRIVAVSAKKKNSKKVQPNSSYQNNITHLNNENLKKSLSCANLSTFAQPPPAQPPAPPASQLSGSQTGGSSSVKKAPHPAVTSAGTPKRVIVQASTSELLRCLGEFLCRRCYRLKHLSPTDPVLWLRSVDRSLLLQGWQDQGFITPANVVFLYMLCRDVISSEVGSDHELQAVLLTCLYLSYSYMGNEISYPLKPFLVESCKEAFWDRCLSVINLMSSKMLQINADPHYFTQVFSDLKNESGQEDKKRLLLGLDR

IGF-1R(h) = IGF-1R(h) (Homo sapiens, UniProt P08069); test: Eurofins kinase assay
Syk(h) = Syk(h) (Homo sapiens, UniProt P43405); test: Eurofins kinase assay
HT29 (BRAF V600E) = test: Cell proliferation assay (CellTiter-Glo); settings: Homo sapiens, HT-29, 72 h
Procedure: To assess cell viability, the CellTiter-Glo Luminescent Cell Viability Assay Reagent (Promega, Fitchburg, WI, USA) was added to each well. The assay measured ATP levels as an indicator of cell viability. All data points were normalized to the control samples treated with dimethyl sulfoxide when determining IC50 values. Statistical calculations and data analysis, including IC50 determination, were performed using GraphPad Prism software.

O=C(Nc1cc(Nc2ncccc2-c2ncnc3[nH]cnc23)ccc1F)c1cc(C(F)(F)F)cc(C(F)(F)F)c1 [SJ-C1044, N-(5-(3-(9H-purin-6-yl)pyridin-2-ylamino)-2-fluorophenyl)-3,5-bis(trifluoromethyl)benzamide]
toxicity and weight loss [1]: no signs of toxicity or significant weight loss | IC50 (TIE2): 23 nM | inhibition at 10 µM (TIE2): 97% | inhibition at 10 µM (BRAF (V600E)): 80% | inhibition at 10 µM (PI3Kinase(p110a/p85a)(h)): 23% | inhibition at 10 µM [2]: 20% | inhibition at 10 µM (BTK(h)): 18% | inhibition at 10 µM (Yes(h)): 17% | inhibition at 10 µM (PKCι(h)): 11% | inhibition at 10 µM (PKCβII(h)): 10% | inhibition at 10 µM (MST2(h)): 9% | inhibition at 10 µM (ATR/ATRIP(h)): 8% | inhibition at 10 µM (Rsk3(h)): 4% | inhibition at 10 µM (PKD2(h)): 3% | inhibition at 10 µM (CaMKIV(h)): 2% | inhibition at 10 µM (PKCγ(h)): 1% | inhibition at 10 µM (CHK2(h)): 0% | inhibition at 10 µM (CK1δ(h)): 0% | inhibition at 10 µM (Rsk1(h)): 0% | inhibition at 10 µM (PRK2(h)): -2% | inhibition at 10 µM (EGFR(h)): -4% | inhibition at 10 µM (NEK2(h)): -4% | inhibition at 10 µM (CaMKIIβ(h)): -5% | inhibition at 10 µM (GSK3β(h)): -5% | inhibition at 10 µM (EphB2(h)): -8% | inhibition at 10 µM (Ros(h)): -12% | inhibition at 10 µM (CDK5/p35(h)): -19% | inhibition at 10 µM (IGF-1R(h)): -24% | inhibition at 10 µM (Syk(h)): -26% | GI50 (HT29 (BRAF V600E)): 247 nM
